According to patent US20240124491A1, “METHODS AND COMPOUNDS FOR TREATING FRIEDREICH'S ATAXIA” (Design Therapeutics, Inc., priority 2021, published 2024):

System: human FXN
Experiment: EC50 assay: FXN mRNA expression by qRT-PCR in GM15850 cells after 48 hrs compound treatment
Assay type: cell-based
Settings: Homo sapiens, 48 hrs incubation, hFXN expression normalized to hGAPDH (qRT-PCR), read-out: EC50 WT (nM, 48 hr)
Method in brief: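 FXN transcript, normalized to GAPDH by TaqMan qRT-PCR, read out after 48 hrs of compound on GM15850 cells plated at 150,000 per well. Dosing used five 3-fold steps from 150 nM final, vehicle 0.01% DMSO.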

SMILES	EC50 [nM]
Cc1sc2c(c1C)C(c1ccc(Cl)cc1)=N[C@@H](CC(=O)NC1CCN(CC#CC#CC3CCN(CCOCCOCCOCCOCCOCCNC(=O)CCNC(=O)c4nc(NC(=O)CCNC(=O)c5cc(NC(=O)c6nc(NC(=O)CCNC(=O)c7cc(NC(=O)c8nccn8C)cn7C)cn6C)cn5C)cn4C)CC3)CC1)c1nnc(C)n1-2 [Compound 92]	< 100
Cc1sc2c(c1C)C(c1ccc(Cl)cc1)=N[C@@H](CC(=O)NC1CCN(CCOCCOCCOCCOCCOCCOCCOCCN3CCN(C(=O)CCNC(=O)c4nc(NC(=O)CCNC(=O)c5nc(NC(=O)c6nc(NC(=O)CCNC(=O)c7cc(NC(=O)c8nccn8C)cn7C)cn6C)cn5C)cn4C)CC3)CC1)c1nnc(C)n1-2 [Compound 98]	100 to 500
Cc1sc2c(c1C)C(c1ccc(Cl)cc1)=N[C@@H](CC(=O)NC1CCN(CCOCCOCCOCCOCCOCCOCCOCCNC3CCN(C(=O)CCNC(=O)c4nc(NC(=O)CCNC(=O)c5nc(NC(=O)c6nc(NC(=O)CCNC(=O)c7cc(NC(=O)c8nccn8C)cn7C)cn6C)cn5C)cn4C)CC3)CC1)c1nnc(C)n1-2 [Compound 99]	100 to 500
Cc1sc2c(c1C)C(c1ccc(Cl)cc1)=N[C@@H](CC(=O)N1CCN(CCOCCOCCOCCOCCOCCOCCOCCOCCNC(=O)CCNC(=O)c3nc(NC(=O)CCNC(=O)c4cc(NC(=O)c5nc(NC(=O)CCNC(=O)c6cc(NC(=O)c7nccn7C)cn6C)cn5C)cn4C)cn3C)CC1)c1nnc(C)n1-2 [Compound 101]	> 500
Cc1sc2c(c1C)C(c1ccc(Cl)cc1)=N[C@@H](CC(=O)Nc1ccc(C#CC#CCN(CCOCCOCCOCCOCCOCCN)CCOCCOCCOCCOCCOCCNC(=O)CCNC(=O)c3nc(NC(=O)CCNC(=O)c4cc(NC(=O)c5nc(NC(=O)CCNC(=O)c6cc(NC(=O)c7nccn7C)cn6C)cn5C)cn4C)cn3C)cc1)c1nnc(C)n1-2 [Compound 104]	100 to 500
Cc1sc2c(c1C)C(c1ccc(Cl)cc1)=N[C@@H](CC(=O)NC1CCN(CCOCCOCCN3CCN(CCOCCOCCOCCOCCNC(=O)CCNC(=O)c4nc(NC(=O)CCNC(=O)c5cc(NC(=O)c6nc(NC(=O)CCNC(=O)c7cc(NC(=O)c8nccn8C)cn7C)cn6C)cn5C)cn4C)CC3)CC1)c1nnc(C)n1-2 [Compound 106]	< 100
Cc1sc2c(c1C)C(c1ccc(Cl)cc1)=N[C@@H](CC(=O)NC1CCN(CCCCCN3CCN(CCOCCOCCOCCOCCOCCNC(=O)CCNC(=O)c4nc(NC(=O)CCNC(=O)c5cc(NC(=O)c6nc(NC(=O)CCNC(=O)c7cc(NC(=O)c8nccn8C)cn7C)cn6C)cn5C)cn4C)CC3)CC1)c1nnc(C)n1-2 [Compound 107]	100 to 500
Cc1sc2c(c1C)C(c1ccc(Cl)cc1)=N[C@@H](CC(=O)NC1CCN(CCOCCOCCOCCOCCN3CCN(CCOCCOCCNC(=O)CCNC(=O)c4nc(NC(=O)CCNC(=O)c5cc(NC(=O)c6nc(NC(=O)CCNC(=O)c7cc(NC(=O)c8nccn8C)cn7C)cn6C)cn5C)cn4C)CC3)CC1)c1nnc(C)n1-2 [Compound 108]	< 100
Cc1sc2c(c1C)C(c1ccc(Cl)cc1)=N[C@@H](CC(=O)NC1CCN(CCOCCOCCOCCOCCOCCN3CCN(CCCCCNC(=O)CCNC(=O)c4nc(NC(=O)CCNC(=O)c5cc(NC(=O)c6nc(NC(=O)CCNC(=O)c7cc(NC(=O)c8nccn8C)cn7C)cn6C)cn5C)cn4C)CC3)CC1)c1nnc(C)n1-2 [Compound 109]	100 to 500
Cc1sc2c(c1C)C(c1ccc(Cl)cc1)=N[C@@H](CC(=O)NCCOCCOCCOCCN(CCOCCOCCOCCNC(=O)C[C@@H]1N=C(c3ccc(Cl)cc3)c3c(sc(C)c3C)-n3c(C)nnc31)CCOCCOCCOCCOCCOCCNC(=O)CCNC(=O)c1nc(NC(=O)CCNC(=O)c3cc(NC(=O)c4nc(NC(=O)CCNC(=O)c5cc(NC(=O)c6nccn6C)cn5C)cn4C)cn3C)cn1C)c1nnc(C)n1-2 [Compound 111]	< 100
Cc1sc2c(c1C)C(c1ccc(Cl)cc1)=N[C@@H](CC(=O)NC1CCN(CCOCCOCCN(CCOCCOCCOCCOCCOCCNC(=O)CCNC(=O)c3nc(NC(=O)CCNC(=O)c4cc(NC(=O)c5nc(NC(=O)CCNC(=O)c6cc(NC(=O)c7nccn7C)cn6C)cn5C)cn4C)cn3C)CCOCCOCCN3CCC(NC(=O)C[C@@H]4N=C(c5ccc(Cl)cc5)c5c(sc(C)c5C)-n5c(C)nnc54)CC3)CC1)c1nnc(C)n1-2 [Compound 112]	100 to 500
Cc1sc2c(c1C)C(c1ccc(Cl)cc1)=N[C@@H](CC(=O)NCCCCCN(CCCCCNC(=O)C[C@@H]1N=C(c3ccc(Cl)cc3)c3c(sc(C)c3C)-n3c(C)nnc31)CCOCCOCCOCCOCCOCCNC(=O)CCNC(=O)c1nc(NC(=O)CCNC(=O)c3cc(NC(=O)c4nc(NC(=O)CCNC(=O)c5cc(NC(=O)c6nccn6C)cn5C)cn4C)cn3C)cn1C)c1nnc(C)n1-2 [Compound 113]	< 100
Cc1sc2c(c1C)C(c1ccc(Cl)cc1)=N[C@@H](CC(=O)NCCCCCN(CCCCCNC(=O)C[C@@H]1N=C(c3ccc(Cl)cc3)c3c(sc(C)c3C)-n3c(C)nnc31)CCOCCOCCOCCOCCOCCOCCOCCNC(=O)CCNC(=O)c1nc(NC(=O)CCNC(=O)c3cc(NC(=O)c4nc(NC(=O)CCNC(=O)c5cc(NC(=O)c6nccn6C)cn5C)cn4C)cn3C)cn1C)c1nnc(C)n1-2 [Compound 114]	< 100
COc1nnc2ccc(N3CCC(c4ccc(OCCN5[C@H](C)CN(C(=O)COCCOCCOCCOCCOCCOCCOCCOCCNC(=O)CCNC(=O)c6nc(NC(=O)CCNC(=O)c7cc(NC(=O)c8nc(NC(=O)CCNC(=O)c9cc(NC(=O)c%10nccn%10C)cn9C)cn8C)cn7C)cn6C)C[C@@H]5C)cc4)CC3)nn12 [Compound 115]	> 500
COc1nnc2ccc(N3CCC(c4ccc(OCCN5CCN(CCOCCOCCOCCOCCOCCOCCOCCOCCNC(=O)CCNC(=O)c6nc(NC(=O)CCNC(=O)c7cc(NC(=O)c8nc(NC(=O)CCNC(=O)c9cc(NC(=O)c%10nccn%10C)cn9C)cn8C)cn7C)cn6C)C(=O)[C@H]5C)cc4)CC3)nn12 [Compound 116]	> 500
Cc1sc2c(c1C)C(c1ccc(Cl)cc1)=N[C@@H](CC(=O)NCCOCCOCCOCCOCCOCCOCCOCCNC(=O)c1sc3c(c1C)C(c1ccc(Cl)cc1)=N[C@@H](CC(=O)NC1CCN(CCOCCOCCOCCOCCOCCOCCOCCOCCNC(=O)CCNC(=O)c4nc(NC(=O)CCNC(=O)c5cc(NC(=O)c6nc(NC(=O)CCNC(=O)c7cc(NC(=O)c8nccn8C)cn7C)cn6C)cn5C)cn4C)CC1)c1nnc(C)n1-3)c1nnc(C)n1-2 [Compound 117]	< 100
Cc1sc2c(c1C)C(c1ccc(N)cc1)=N[C@@H](CC(=O)N1CCC(C#CC#CC3CCN(CCOCCOCCOCCOCCNC(=O)CCNC(=O)c4nc(NC(=O)CCNC(=O)c5cc(NC(=O)c6nc(NC(=O)CCNC(=O)c7cc(NC(=O)c8nccn8C)cn7C)cn6C)cn5C)cn4C)CC3)CC1)c1nnc(C)n1-2 [Compound 119]	< 100
COCCOCCOCCOCCOCCOCCOCCOCCOCCOCCOCCC(=O)Nc1ccc(C2=N[C@@H](CC(=O)N3CCC(C#CC#CC4CCN(CCOCCOCCOCCOCCNC(=O)CCNC(=O)c5nc(NC(=O)CCNC(=O)c6cc(NC(=O)c7nc(NC(=O)CCNC(=O)c8cc(NC(=O)c9nccn9C)cn8C)cn7C)cn6C)cn5C)CC4)CC3)c3nnc(C)n3-c3sc(C)c(C)c32)cc1 [Compound 120]	100 to 500
Cc1sc2c(c1C)C(c1ccc(NC(=O)COCCOCCOCCN3CCN(CC4CCN(C)CC4)CC3)cc1)=N[C@@H](CC(=O)N1CCC(C#CC#CC3CCN(CCOCCOCCOCCOCCNC(=O)CCNC(=O)c4nc(NC(=O)CCNC(=O)c5cc(NC(=O)c6nc(NC(=O)CCNC(=O)c7cc(NC(=O)c8nccn8C)cn7C)cn6C)cn5C)cn4C)CC3)CC1)c1nnc(C)n1-2 [Compound 121]	100 to 500
Cc1sc2c(c1C)C(c1ccc(Cl)cc1)=N[C@@H](CC(=O)N1CCC(C#CC#CCN(CCOCCOCCOCCOCCOCCNC(=O)CCNC(=O)c3nc(NC(=O)CCNC(=O)c4cc(NC(=O)c5nc(NC(=O)CCNC(=O)c6cc(NC(=O)c7nccn7C)cn6C)cn5C)cn4C)cn3C)CC(O)COCC(O)CO)CC1)c1nnc(C)n1-2 (stereo partly drawn) [Compound 122]	100 to 500
Cc1sc2c(c1C)C(c1ccc(Cl)cc1)=N[C@@H](CC(=O)Nc1ccc(N3CCC(N4CCN(CCOCCOCCOCCOCCOCCOCCNC(=O)CCNC(=O)c5nc(NC(=O)CCNC(=O)c6cc(NC(=O)c7nc(NC(=O)CCNC(=O)c8cc(NC(=O)c9nccn9C)cn8C)cn7C)cn6C)cn5C)CC4)CC3)nc1)c1nnc(C)n1-2 [Compound 124]	< 100
Cc1sc2c(c1C)C(c1ccc(Cl)cc1)=N[C@@H](CC(=O)Nc1cncc(N3CCC(N4CCN(CCOCCOCCOCCOCCOCCOCCNC(=O)CCNC(=O)c5nc(NC(=O)CCNC(=O)c6cc(NC(=O)c7nc(NC(=O)CCNC(=O)c8cc(NC(=O)c9nccn9C)cn8C)cn7C)cn6C)cn5C)CC4)CC3)c1)c1nnc(C)n1-2 [Compound 125]	< 100
Cc1sc2c(c1C)C(c1ccc(Cl)cc1)=N[C@@H](CC(=O)N1CC(C#CC#CC3CN(CCOCCOCCOCCOCCNC(=O)CCNC(=O)c4nc(NC(=O)CCNC(=O)c5cc(NC(=O)c6nc(NC(=O)CCNC(=O)c7cc(NC(=O)c8nccn8C)cn7C)cn6C)cn5C)cn4C)C3)C1)c1nnc(C)n1-2 [Compound 126]	< 100
Cc1sc2c(c1C)C(c1ccc(Cl)cc1)=N[C@@H](CC(=O)N1CC(C#CC#CC3CN(CCOCCOCCOCCOCCOCCOCCNC(=O)CCNC(=O)c4nc(NC(=O)CCNC(=O)c5cc(NC(=O)c6nc(NC(=O)CCNC(=O)c7cc(NC(=O)c8nccn8C)cn7C)cn6C)cn5C)cn4C)C3)C1)c1nnc(C)n1-2 [Compound 127]	< 100
Cc1sc2c(c1C)C(c1ccc(Cl)cc1)=N[C@@H](CC(=O)NC(C)(C)C#CC#CCNCCOCCOCCOCCOCCOCCOCCNC(=O)CCNC(=O)c1nc(NC(=O)CCNC(=O)c3cc(NC(=O)c4nc(NC(=O)CCNC(=O)c5cc(NC(=O)c6nccn6C)cn5C)cn4C)cn3C)cn1C)c1nnc(C)n1-2 [Compound 130]	< 100
Cc1c(C(=O)NCCN2CCN(C)CC2)sc2c1C(c1ccc(Cl)cc1)=N[C@@H](CC(=O)N1CCC(C#CC#CC3CCN(CCOCCOCCOCCOCCNC(=O)CCNC(=O)c4nc(NC(=O)CCNC(=O)c5cc(NC(=O)c6nc(NC(=O)CCNC(=O)c7cc(NC(=O)c8nccn8C)cn7C)cn6C)cn5C)cn4C)CC3)CC1)c1nnc(C)n1-2 [Compound 131]	100 to 500
COCCOCCOCCOCCOCCOCCOCCOCCOCCOCCOCCNC(=O)c1sc2c(c1C)C(c1ccc(Cl)cc1)=N[C@@H](CC(=O)N1CCC(C#CC#CC3CCN(CCOCCOCCOCCOCCNC(=O)CCNC(=O)c4nc(NC(=O)CCNC(=O)c5cc(NC(=O)c6nc(NC(=O)CCNC(=O)c7cc(NC(=O)c8nccn8C)cn7C)cn6C)cn5C)cn4C)CC3)CC1)c1nnc(C)n1-2 [Compound 133]	100 to 500
